Measurements as given in patent US7192906B2, “Substituted pyrazole derivatives, production process thereof, and herbicide compositions containing the derivatives” (SDS Biotech K.K., priority 2001, dated 2007).

Assays:
Type in all cases: in vivo
[1] = test system: wheat (Triticum aestivum); assay: Test Example 1 upland field foliage treatment, crop phytotoxicity; settings: Table 4, upland field foliage treatment, index 0-5
Method in brief: (§1)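 A leaf-surface application at an active-ingredient rate of 1 kg per hectare was made to 14-day-old plants in upland soil. Evaluation followed 21 days later using a six-grade scale, where grade 5 means at least 90% kill or phytotoxicity.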

soybean (Glycine max) [2] = assay: as above; settings: Table 4, upland field foliage treatment, index 0-5
Method in brief: as §1

[3] = test system: wheat (Triticum aestivum); assay: Test Example 2 upland soil treatment, crop phytotoxicity; settings: Table 5, upland soil treatment, index 0-5
Method in brief: (§2)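 Dose of 1 kg active ingredient per hectare, given as diluted wettable powder to the soil surface the day after sowing in upland soil (~1 cm cover). Effect rated 21 days on: 5 for ≥90%, 4 for 70–<90%, down to 0 for <10%.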

soybean (Glycine max) [4] = assay: as above; settings: Table 5, upland soil treatment, index 0-5
Method in brief: as §2

Stellaria media [5] = assay: Test Example 1 upland field foliage treatment; settings: Table 4, upland field foliage treatment, index 0-5
Method in brief: as §1

Setaria viridis [6] = assay: Test Example 1 upland field foliage treatment; settings: Table 4, upland field foliage treatment, index 0-5
Method in brief: as §1

Digitaria adscendens [7] = assay: Test Example 1 upland field foliage treatment; settings: Table 4, upland field foliage treatment, index 0-5
Method in brief: as §1

Chenopodium album [8] = assay: Test Example 1 upland field foliage treatment; settings: Table 4, upland field foliage treatment, index 0-5
Method in brief: as §1

Stellaria media [9] = assay: Test Example 2 upland soil treatment; settings: Table 5, upland soil treatment, index 0-5
Method in brief: as §2

Setaria viridis [10] = assay: Test Example 2 upland soil treatment; settings: Table 5, upland soil treatment, index 0-5
Method in brief: as §2

Digitaria adscendens [11] = assay: Test Example 2 upland soil treatment; settings: Table 5, upland soil treatment, index 0-5
Method in brief: as §2

Chenopodium album [12] = assay: Test Example 2 upland soil treatment; settings: Table 5, upland soil treatment, index 0-5
Method in brief: as §2

Row | Structure (SMILES) | Herbicidal activity (phytotoxicity) TA: Wheat (Triticum aestivum) [1] | Herbicidal activity (phytotoxicity) GM: Soybean (Glycine max) (soybean (Glycine max) [2]) | Herbicidal activity (phytotoxicity) TA: Wheat (Triticum aestivum) [3] | Herbicidal activity (phytotoxicity) GM: Soybean (Glycine max) (soybean (Glycine max) [4]) | Herbicidal activity SM: Stellaria media (Stellaria media [5]) | Herbicidal activity SV: Setaria viridis (Setaria viridis [6]) | Herbicidal activity DA: Digitaria adscendens (Digitaria adscendens [7]) | Herbicidal activity CA: Chenopodium album (Chenopodium album [8]) | Herbicidal activity SM: Stellaria media (Stellaria media [9]) | Herbicidal activity SV: Setaria viridis (Setaria viridis [10]) | Herbicidal activity DA: Digitaria adscendens (Digitaria adscendens [11]) | Herbicidal activity CA: Chenopodium album (Chenopodium album [12])
1 | CNC(=O)C(Cn1cc(C)c(-c2ccc(F)c(Br)c2)n1)=NOC [Compound 83] | 0 (herbicidal effect of not less than 0% and less than 10%, or phytotoxicity of 0% or more and less than 10%) | 0 (herbicidal effect of not less than 0% and less than 10%, or phytotoxicity of 0% or more and less than 10%) | 0 (herbicidal effect of not less than 0% and less than 10%, or phytotoxicity of 0% or more and less than 10%) | 0 (herbicidal effect of not less than 0% and less than 10%, or phytotoxicity of 0% or more and less than 10%) | 4 (herbicidal effect of not less than 70% and less than 90%, or phytotoxicity of 70% or more and less than 90%) | 3 (herbicidal effect of not less than 50% and less than 70%, or phytotoxicity of 50% or more and less than 70%) | 5 (herbicidal effect of not less than 90%, or phytotoxicity of 90% or more) | 4 (herbicidal effect of not less than 70% and less than 90%, or phytotoxicity of 70% or more and less than 90%) | 5 (herbicidal effect of not less than 90%, or phytotoxicity of 90% or more) | 5 (herbicidal effect of not less than 90%, or phytotoxicity of 90% or more) | 5 (herbicidal effect of not less than 90%, or phytotoxicity of 90% or more) | 5 (herbicidal effect of not less than 90%, or phytotoxicity of 90% or more)
2 | CCOC(CNC(=O)C(Cn1cc(C)c(-c2ccccc2)n1)=NOC)OCC [Compound 28] | 0 (herbicidal effect of not less than 0% and less than 10%, or phytotoxicity of 0% or more and less than 10%) | 0 (herbicidal effect of not less than 0% and less than 10%, or phytotoxicity of 0% or more and less than 10%) | 0 (herbicidal effect of not less than 0% and less than 10%, or phytotoxicity of 0% or more and less than 10%) | 0 (herbicidal effect of not less than 0% and less than 10%, or phytotoxicity of 0% or more and less than 10%) | 3 (herbicidal effect of not less than 50% and less than 70%, or phytotoxicity of 50% or more and less than 70%) | 3 (herbicidal effect of not less than 50% and less than 70%, or phytotoxicity of 50% or more and less than 70%) | 3 (herbicidal effect of not less than 50% and less than 70%, or phytotoxicity of 50% or more and less than 70%) | 4 (herbicidal effect of not less than 70% and less than 90%, or phytotoxicity of 70% or more and less than 90%) | 3 (herbicidal effect of not less than 50% and less than 70%, or phytotoxicity of 50% or more and less than 70%) | 3 (herbicidal effect of not less than 50% and less than 70%, or phytotoxicity of 50% or more and less than 70%) | 4 (herbicidal effect of not less than 70% and less than 90%, or phytotoxicity of 70% or more and less than 90%) | 4 (herbicidal effect of not less than 70% and less than 90%, or phytotoxicity of 70% or more and less than 90%)
